In US12371428B2 (Exelixis, Inc., priority 2019, dated 2025):
Where two headings read alike, the source gives them in different places.

Tests used:
[1] = biological target: Human MER (residues 528-999) (Homo sapiens (Human), UniProt Q12866); assay: Human Mer kinase assay, HTRF KinEase (Example C-2); assay type: biochemical
Procedure, shortened: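 HTRF KinEase TK assay with MER 528-999 (1 ng/well) in enzymatic buffer plus 5 mM MgCl2 and 1 mM DTT, biotinylated peptide substrate and ATP at Km (40 μM), 3% DMSO final, 60 min at room temperature. Stopped with EDTA detection mix (SA-XL665, TK antibody-Eu3+), read at 665/620 nm after 60 min; IC50 from 10-point 4-parameter fit, normalized to DMSO and 1 μM reference.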

[2] = biological target: Human MET (residues 956-1390) (Homo sapiens (Human), UniProt P08581); assay: Human Met kinase assay, HTRF KinEase (Example D-2); assay type: biochemical; conditions: read-out: c-Met IC50
Procedure, shortened: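 HTRF KinEase assay on MET residues 956-1390 (0.1 ng/well) in buffer with 5 mM MgCl2, 1 mM DTT and 1 mM MnCl2, with biotinylated peptide substrate, ATP at Km, 10 compound concentrations and 3% DMSO final, run 40 min at room temperature. The […] signal was normalized to DMSO and to 1 μM reference compound, and IC50 came from a 4-parameter logistic fit.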

[3] = biological target: Met (phospho-Met, HGF-stimulated PC-3 prostate cancer cells) (Homo sapiens (Human), UniProt P08581); assay: Met autophosphorylation ELISA in PC-3 cells (Example F); assay type: cell-based; conditions: cellular activity; Met autophosphorylation ELISA in PC-3 cells; read-out: c-Met IC50
Procedure, shortened: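 IC50 values derive from a 4-parameter logistic fit of phospho-Met (panTyr) sandwich ELISA signals in PC-3 lysates, scaled between DMSO and reference-inhibitor wells. Cells, starved 3 h in serum-free medium, had 1 h compound exposure (8 doses, 0.3% DMSO) before 10 min stimulation with 100 ng/mL HGF.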

[4] = biological target: KDR (phospho-KDR, VEGF165-stimulated HUVEC cells) (Homo sapiens (Human), UniProt P35968); assay: KDR autophosphorylation ELISA in HUVEC cells (Example G); assay type: cell-based; conditions: cellular activity; KDR autophosphorylation ELISA in HUVEC cells
Procedure, shortened: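 HUVEC cells, serum-starved 24 h, were treated 1 h with an 8-point compound dilution (0.3% DMSO) and then stimulated with 100 ng/mL VEGF165 for 5 min. Phospho-KDR in lysates was quantified by sandwich ELISA against a phospho-KDR standard. IC50 from a 4-parameter logistic fit, normalised between stimulated DMSO and unstimulated controls.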

Chain of Human MER (residues 528-999) (Q12866 528-999): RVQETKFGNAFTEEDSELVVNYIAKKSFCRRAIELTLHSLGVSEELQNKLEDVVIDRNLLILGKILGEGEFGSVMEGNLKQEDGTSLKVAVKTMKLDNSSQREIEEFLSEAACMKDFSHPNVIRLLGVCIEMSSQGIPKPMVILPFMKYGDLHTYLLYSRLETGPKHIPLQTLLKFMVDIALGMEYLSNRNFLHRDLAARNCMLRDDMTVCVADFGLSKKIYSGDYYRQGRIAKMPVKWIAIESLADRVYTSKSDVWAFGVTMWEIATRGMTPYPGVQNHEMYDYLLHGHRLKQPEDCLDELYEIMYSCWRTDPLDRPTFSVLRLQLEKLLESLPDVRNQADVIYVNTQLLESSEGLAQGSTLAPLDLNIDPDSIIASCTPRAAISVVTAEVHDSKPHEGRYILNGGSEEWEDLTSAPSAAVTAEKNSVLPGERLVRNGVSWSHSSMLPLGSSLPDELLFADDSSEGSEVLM
Chain of KDR (phospho-KDR, VEGF165-stimulated HUVEC cells) (P35968 20-1356): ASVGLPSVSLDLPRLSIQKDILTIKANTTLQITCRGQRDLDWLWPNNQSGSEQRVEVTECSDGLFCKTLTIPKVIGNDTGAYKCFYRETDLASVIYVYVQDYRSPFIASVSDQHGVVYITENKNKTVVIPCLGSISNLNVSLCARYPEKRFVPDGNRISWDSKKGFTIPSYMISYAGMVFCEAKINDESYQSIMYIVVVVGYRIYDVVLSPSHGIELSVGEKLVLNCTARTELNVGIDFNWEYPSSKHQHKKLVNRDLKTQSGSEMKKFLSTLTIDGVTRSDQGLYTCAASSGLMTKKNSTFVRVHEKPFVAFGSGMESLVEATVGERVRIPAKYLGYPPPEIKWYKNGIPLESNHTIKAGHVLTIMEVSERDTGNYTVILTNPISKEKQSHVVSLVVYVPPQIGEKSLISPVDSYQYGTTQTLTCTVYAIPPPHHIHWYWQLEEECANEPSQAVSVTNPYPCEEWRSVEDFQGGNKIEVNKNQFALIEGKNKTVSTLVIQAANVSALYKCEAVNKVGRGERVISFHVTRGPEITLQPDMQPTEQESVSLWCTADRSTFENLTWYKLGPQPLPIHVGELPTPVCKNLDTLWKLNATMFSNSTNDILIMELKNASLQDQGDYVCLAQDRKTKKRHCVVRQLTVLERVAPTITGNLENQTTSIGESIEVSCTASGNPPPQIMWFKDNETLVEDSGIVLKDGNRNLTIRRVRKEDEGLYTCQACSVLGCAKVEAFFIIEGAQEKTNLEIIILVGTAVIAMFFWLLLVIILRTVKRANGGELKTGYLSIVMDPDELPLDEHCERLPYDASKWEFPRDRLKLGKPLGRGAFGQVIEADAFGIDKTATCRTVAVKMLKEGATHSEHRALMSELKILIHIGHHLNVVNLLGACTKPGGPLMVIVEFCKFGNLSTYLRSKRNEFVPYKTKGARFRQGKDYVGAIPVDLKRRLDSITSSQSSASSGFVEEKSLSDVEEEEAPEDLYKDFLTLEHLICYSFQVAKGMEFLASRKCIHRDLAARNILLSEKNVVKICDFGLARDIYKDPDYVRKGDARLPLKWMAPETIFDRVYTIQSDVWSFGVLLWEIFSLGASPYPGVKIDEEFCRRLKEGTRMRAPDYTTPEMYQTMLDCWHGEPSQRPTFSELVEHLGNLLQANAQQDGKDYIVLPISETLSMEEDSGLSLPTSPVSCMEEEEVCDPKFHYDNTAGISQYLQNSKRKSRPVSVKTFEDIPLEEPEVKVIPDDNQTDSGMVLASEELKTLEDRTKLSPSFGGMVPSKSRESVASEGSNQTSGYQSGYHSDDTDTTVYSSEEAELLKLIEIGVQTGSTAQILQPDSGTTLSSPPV
Chain of Human MET (residues 956-1390) (P08581 956-1390): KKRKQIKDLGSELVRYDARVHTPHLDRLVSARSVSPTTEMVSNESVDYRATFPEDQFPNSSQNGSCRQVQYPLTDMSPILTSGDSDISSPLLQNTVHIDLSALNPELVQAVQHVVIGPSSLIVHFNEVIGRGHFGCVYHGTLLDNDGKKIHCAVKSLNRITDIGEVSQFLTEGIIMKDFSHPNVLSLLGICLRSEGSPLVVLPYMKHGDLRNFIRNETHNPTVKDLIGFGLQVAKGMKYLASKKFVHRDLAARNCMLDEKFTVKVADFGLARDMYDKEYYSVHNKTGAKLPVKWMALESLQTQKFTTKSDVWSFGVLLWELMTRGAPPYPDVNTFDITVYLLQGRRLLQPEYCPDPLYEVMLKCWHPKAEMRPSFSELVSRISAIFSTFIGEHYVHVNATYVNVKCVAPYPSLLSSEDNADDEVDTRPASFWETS
Chain of Met (phospho-Met, HGF-stimulated PC-3 prostate cancer cells) (P08581 25-1390): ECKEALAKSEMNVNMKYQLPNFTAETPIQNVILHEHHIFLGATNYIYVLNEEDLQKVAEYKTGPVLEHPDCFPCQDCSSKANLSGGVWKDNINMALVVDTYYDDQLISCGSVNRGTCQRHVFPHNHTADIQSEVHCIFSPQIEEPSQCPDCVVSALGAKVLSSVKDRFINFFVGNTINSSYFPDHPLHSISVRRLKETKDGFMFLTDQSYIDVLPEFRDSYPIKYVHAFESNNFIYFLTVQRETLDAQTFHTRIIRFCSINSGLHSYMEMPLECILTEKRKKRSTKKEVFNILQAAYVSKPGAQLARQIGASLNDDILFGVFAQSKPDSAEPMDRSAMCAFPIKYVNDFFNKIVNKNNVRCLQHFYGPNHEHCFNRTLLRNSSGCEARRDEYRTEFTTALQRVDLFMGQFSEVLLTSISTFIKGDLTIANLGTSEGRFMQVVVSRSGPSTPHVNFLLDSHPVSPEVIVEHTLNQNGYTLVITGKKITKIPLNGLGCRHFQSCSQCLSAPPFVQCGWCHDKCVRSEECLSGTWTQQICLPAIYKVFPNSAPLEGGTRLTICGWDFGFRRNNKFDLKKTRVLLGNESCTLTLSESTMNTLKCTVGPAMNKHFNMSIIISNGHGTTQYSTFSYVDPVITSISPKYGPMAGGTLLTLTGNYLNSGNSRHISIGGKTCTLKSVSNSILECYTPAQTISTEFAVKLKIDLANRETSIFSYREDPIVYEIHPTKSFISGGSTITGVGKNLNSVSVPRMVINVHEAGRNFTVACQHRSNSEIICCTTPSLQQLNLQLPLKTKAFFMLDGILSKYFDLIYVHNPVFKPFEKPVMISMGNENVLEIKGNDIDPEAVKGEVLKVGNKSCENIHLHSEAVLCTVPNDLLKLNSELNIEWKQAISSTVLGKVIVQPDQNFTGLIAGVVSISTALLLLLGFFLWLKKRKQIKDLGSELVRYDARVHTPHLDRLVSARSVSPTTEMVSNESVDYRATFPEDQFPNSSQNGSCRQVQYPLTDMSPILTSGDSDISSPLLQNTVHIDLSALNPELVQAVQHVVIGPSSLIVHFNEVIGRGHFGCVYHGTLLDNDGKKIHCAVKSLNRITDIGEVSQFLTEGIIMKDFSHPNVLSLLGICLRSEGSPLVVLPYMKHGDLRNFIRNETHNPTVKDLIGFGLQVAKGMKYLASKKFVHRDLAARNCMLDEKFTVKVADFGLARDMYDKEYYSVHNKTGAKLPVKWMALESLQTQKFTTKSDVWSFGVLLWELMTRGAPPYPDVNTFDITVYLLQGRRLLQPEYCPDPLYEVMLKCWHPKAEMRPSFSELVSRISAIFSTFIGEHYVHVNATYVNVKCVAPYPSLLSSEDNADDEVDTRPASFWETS

| Structure (SMILES) | IC50 ([1]; protocol of Example C-2) | IC50 ([2]; protocol of Example D-2) | IC50 [3] | IC50 [4] | IC50 ([1]; protocol of Example C-2 (other compounds)) | IC50 ([2]; protocol of Example D-2 (other compounds)) |
| --- | --- | --- | --- | --- | --- | --- |
| COCCOc1cnc2c(Oc3ccc(NC(=O)c4ccc(C)n(-c5ccc(F)cc5)c4=O)cc3F)ccnc2c1 [Compound 552, N-[3-Fluoro-4-[[7-(2-methoxyethoxy)-1,5-naphthyridin-4-yl]oxy]phenyl]-1-(4-fluorophenyl)-6-methyl-2-oxopyridine-3-carboxamide] | < 100 nM | < 100 nM | < 100 nM | < 100 nM |  |  |
| COc1cc2nccc(Oc3ccc(NC(=O)c4ccc(C)n(-c5ccc(F)cc5)c4=O)cc3F)c2nc1OC [Compound 254, N-[4-[(6,7-Dimethoxy-1,5-naphthyridin-4-yl)oxy]-3-fluorophenyl]-1-(4-fluorophenyl)-6-methyl-2-oxopyridine-3-carboxamide] |  |  | < 100 nM | < 100 nM | < 100 nM | < 100 nM |
| COc1cc2nccc(Oc3ccc(NC(=O)c4c(C)n(C)c(C)c(-c5ccc(F)cc5)c4=O)cc3)c2nc1OC [Compound 523, N-[4-[(6,7-dimethoxy-1,5-naphthyridin-4-yl)oxy]phenyl]-5-(4-fluorophenyl)-1,2,6-trimethyl-4-oxopyridine-3-carboxamide] | < 100 nM | < 100 nM | < 100 nM | > 300 nM |  |  |
| COc1cc2nccc(Oc3ccc(NC(=O)c4cn(C)c(CF)c(-c5ccc(F)cc5C)c4=O)cc3F)c2nc1OC [Compound 556, N-[4-[(6,7-Dimethoxy-1,5-naphthyridin-4-yl)oxy]-3-fluorophenyl]-6-(fluoromethyl)-5-(4-fluoro-2-methylphenyl)-1-methyl-4-oxopyridine-3-carboxamide] | < 100 nM | 100 to 300 nM | < 100 nM | < 100 nM |  |  |
| Cc1ccc(C(=O)Nc2ccc(Oc3ccnc4cc(O)cnc34)c(F)c2)c(=O)n1-c1ccc(F)cc1 [Compound 551, N-[3-Fluoro-4-[(7-hydroxy-1,5-naphthyridin-4-yl)oxy]phenyl]-1-(4-fluorophenyl)-6-methyl-2-oxopyridine-3-carboxamide] | < 100 nM | < 100 nM | < 100 nM | < 100 nM |  |  |
| Cc1cc(F)ccc1-c1c(C)nc(C)c(C(=O)Nc2ccc(Oc3ccnc4cccnc34)c(F)c2)c1O [Compound 505, 5-(4-fluoro-2-methylphenyl)-N-[3-fluoro-4-(1,5-naphthyridin-4-yloxy)phenyl]-4-hydroxy-2,6-dimethylpyridine-3-carboxamide] | 100 to 300 nM | < 100 nM | < 100 nM | < 100 nM |  |  |
| COc1cc2nccc(Oc3ccc(NC(=O)c4cnc(SC(C)C)n(-c5ccc(F)cc5)c4=O)cc3)c2cc1OC [Compound 539, N-[4-(6,7-dimethoxyquinolin-4-yl)oxyphenyl]-1-(4-fluorophenyl)-6-oxo-2-propan-2-ylsulfanylpyrimidine-5-carboxamide] | < 100 nM | 100 to 300 nM | < 100 nM | > 300 nM |  |  |

The next lines start with the values.

| IC50 ([1]; protocol of Example C-2) | IC50 ([2]; protocol of Example D-2) | IC50 [3] | IC50 [4] | IC50 ([1]; protocol of Example C-2 (other compounds)) | IC50 ([2]; protocol of Example D-2 (other compounds)) | Structure (SMILES) |
| --- | --- | --- | --- | --- | --- | --- |
| < 100 nM | < 100 nM | < 100 nM | 100 to 300 nM |  |  | COCc1nc(C)c(-c2ccc(F)cc2C)c(O)c1C(=O)Nc1ccc(Oc2ccnc3ccc(OC)nc23)cc1 [Compound 516, 5-(4-fluoro-2-methylphenyl)-4-hydroxy-2-(methoxymethyl)-N-[4-[(6-methoxy-1,5-naphthyridin-4-yl)oxy]phenyl]-6-methylpyridine-3-carboxamide] |
| < 100 nM | < 100 nM | < 100 nM | 100 to 300 nM |  |  | COc1cc2nccc(Oc3ccc(NC(=O)c4cn(C)c(CF)c(-c5ccc(F)cc5)c4=O)cc3)c2nc1OC [Compound 560, N-[4-[(6,7-Dimethoxy-1,5-naphthyridin-4-yl)oxy]phenyl]-6-(fluoromethyl)-5-(4-fluorophenyl)-1-methyl-4-oxopyridine-3-carboxamide] |
| 100 to 300 nM | 100 to 300 nM | < 100 nM | < 100 nM |  |  | COc1cnc2c(Oc3ccc(NC(=O)c4ccnn(-c5ccc(F)cc5C)c4=O)cc3)ccnc2c1 [Compound 530, 2-(4-fluoro-2-methylphenyl)-N-[4-[(7-methoxy-1,5-naphthyridin-4-yl)oxy]phenyl]-3-oxopyridazine-4-carboxamide] |
| < 100 nM | < 100 nM | < 100 nM | < 100 nM |  |  | Cc1nc(C)c(-c2ccc(F)cc2)c(O)c1C(=O)Nc1ccc(Oc2ccnc3cc(O)cnc23)c(F)c1 [Compound 554, N-[3-Fluoro-4-[(7-hydroxy-1,5-naphthyridin-4-yl)oxy]phenyl]-5-(4-fluorophenyl)-4-hydroxy-2,6-dimethylpyridine-3-carboxamide] |
